In PubChem BioAssay (NCI) one finds GI50 and TGI data, which are given here for 13 compounds.

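Results reflect a 48-hour exposure of cells in 96-well plates to compound at five concentrations. Here, GI50 denotes the concentration required for 50% inhibition of growth. TGI marks complete inhibition of growth.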 Some results are limits rather than exact numbers.

Some test systems named below: SNB-78 CNS; TK-10 renal; CCRF-CEM leukemia; RXF 393 renal; LXFL 529 NSCLC; A498 renal; DLD-1 colon; UO-31 renal; UACC-257 melanoma; COLO 205 colon.
Holding throughout (test): NCI anticancer screen, dose series, 48 h

Turning to `C1C[OH+]CC[OH+]CCNCC[OH+]CC[OH+]CCN1.N.[Cl-].[Pt+4]`, the GI50 with SNB-78 CNS was 4.15 µM; in the experiment with TK-10 renal it was 8.31 µM; in the experiment with CCRF-CEM leukemia, 0.62 µM; in the experiment with RXF 393 renal, 2.49 µM; in the experiment with LXFL 529 NSCLC it was 18.2 µM; in the experiment with A498 renal, 21.3 µM. Besides, the GI50 was 20.2 µM with DLD-1 colon, 12.2 µM with UO-31 renal, 3.19 µM in the experiment with UACC-257 melanoma and 36.7 µM with COLO 205 colon. Also, the TGI was 63.3 µM in the experiment with SNB-78 CNS; 71.3 µM in the experiment on TK-10 renal; more than 100 µM in the experiment on CCRF-CEM leukemia; 12.3 µM in the experiment with RXF 393 renal; 64 µM in the experiment with LXFL 529 NSCLC; 55.1 µM in the experiment on A498 renal. Besides, the TGI is more than 100 µM in the experiment with DLD-1 colon, 32 µM in the experiment on UO-31 renal, 10.9 µM with UACC-257 melanoma and more than 100 µM with COLO 205 colon.
As to `COc1ccc2nc(-c3cccs3)cc(C(O)CN3CCSCC3)c2c1` (stereo not given), the TGI was 91.8 µM in the experiment with TK-10 renal; 44.9 µM in the experiment on CCRF-CEM leukemia; more than 100 µM with RXF 393 renal; 91.8 µM in the experiment with LXFL 529 NSCLC; more than 100 µM in the experiment with DLD-1 colon; 60.8 µM in the experiment with UO-31 renal. Further, the TGI came out at 63.7 µM with UACC-257 melanoma and 53.7 µM in the experiment with COLO 205 colon.
`C#CCOCn1cnc2c(Cl)ncnc21`: the TGI in the experiment on SNB-78 CNS, with TK-10 renal, in the experiment on CCRF-CEM leukemia, with LXFL 529 NSCLC, in the experiment on A498 renal and in the experiment with DLD-1 colon was more than 100 µM in each case. In addition, the TGI with UO-31 renal, with UACC-257 melanoma and with COLO 205 colon was more than 100 µM in each case.
With `O=C(NCCCCCCNC(=O)n1cc(F)c(=O)[nH]c1=O)NCCCOCCOCCOCCOCCOCCOCCOCCOCCOCCOCCOCCOCCOCCOCCOCCOCCOCCOCCOCCOCCOCCCNC(=O)C(O)C(O)C(O)C(O)CO` (stereo not given), the TGI with SNB-78 CNS was more than 100 µM; in the experiment with TK-10 renal, more than 100 µM; in the experiment with CCRF-CEM leukemia it was more than 100 µM; in the experiment on RXF 393 renal, more than 100 µM; with A498 renal, more than 42.1 µM; with DLD-1 colon, more than 100 µM. Further, the TGI in the experiment on UO-31 renal, in the experiment with UACC-257 melanoma and with COLO 205 colon was more than 100 µM in each case.
With `O=c1/c(=C/c2ccccc2F)sc2nc3ccccc3n12`, the TGI with SNB-78 CNS, with TK-10 renal, with CCRF-CEM leukemia, with RXF 393 renal, with LXFL 529 NSCLC and in the experiment with A498 renal was more than 100 µM throughout. The TGI in the experiment on DLD-1 colon, with UO-31 renal and with UACC-257 melanoma was more than 100 µM throughout.
Consider `CC1C=C(OC(=O)c2ccccc2)C(=O)C(n2cc(F)c(=O)[nH]c2=O)O1` (stereo not given), for which the TGI with SNB-78 CNS, in the experiment on TK-10 renal, in the experiment on CCRF-CEM leukemia, with LXFL 529 NSCLC, with A498 renal and with DLD-1 colon was more than 100 µM throughout. The TGI in the experiment with UO-31 renal, in the experiment on UACC-257 melanoma and with COLO 205 colon was more than 100 µM throughout.
As for `CCN(CC)c1ccc(C(=O)c2ccccc2C(=O)O)c(O)c1`, the TGI in the experiment on SNB-78 CNS, with TK-10 renal, with CCRF-CEM leukemia, in the experiment on RXF 393 renal, in the experiment with LXFL 529 NSCLC and in the experiment on A498 renal was more than 100 µM each time. In addition, the TGI in the experiment on UO-31 renal, in the experiment on UACC-257 melanoma and with COLO 205 colon was more than 100 µM throughout.
As to `CCCC(=O)OC1C(C(O)CO)OC2OC(C)(C)OC21` (stereo not given), the TGI in the experiment on SNB-78 CNS was more than 100 µM; in the experiment with TK-10 renal, more than 100 µM; with CCRF-CEM leukemia, less than 3.16 µM; in the experiment with RXF 393 renal, more than 100 µM; in the experiment with A498 renal it was more than 100 µM; in the experiment on DLD-1 colon, more than 100 µM. For the same compound, the TGI in the experiment on UO-31 renal, in the experiment with UACC-257 melanoma and in the experiment on COLO 205 colon was more than 100 µM each time.
Regarding `CCCNC1=C(C(=O)OCC)C(=O)CO1`, the TGI in the experiment on SNB-78 CNS, in the experiment with TK-10 renal, with CCRF-CEM leukemia, in the experiment on RXF 393 renal, in the experiment with LXFL 529 NSCLC and with A498 renal was more than 100 µM each time. In addition, the TGI in the experiment with DLD-1 colon, with UO-31 renal and with UACC-257 melanoma was more than 100 µM throughout.
With `CC(CCC(=O)O)[C@H]1CCC2[C@@H]3CC[C@@H]4CC(O)CC[C@]4(C)C3CC[C@@]21C` (stereo not given in full), the GI50 was 42.2 µM in the experiment on TK-10 renal; 21.9 µM in the experiment on CCRF-CEM leukemia; 46.9 µM in the experiment with RXF 393 renal; 22.1 µM in the experiment on UO-31 renal; 27.7 µM in the experiment with UACC-257 melanoma; 23.7 µM in the experiment on COLO 205 colon. Besides, the TGI with TK-10 renal is more than 100 µM; with CCRF-CEM leukemia, 85.3 µM; in the experiment with RXF 393 renal it was more than 100 µM; in the experiment on A498 renal, more than 100 µM; with UO-31 renal, 67.3 µM; in the experiment on UACC-257 melanoma it was more than 100 µM. In the experiment with COLO 205 colon, this compound displayed a TGI of 53.1 µM.
For the compound `CCCC(C)c1cc(Cc2cc(Cl)cc(Cl)c2O)c(O)c(Cc2cc(Cl)cc(Cl)c2O)c1` (stereo not given), the GI50 in the experiment with TK-10 renal was 2.3 µM; in the experiment on CCRF-CEM leukemia, 0.432 µM; with RXF 393 renal, 1.34 µM; in the experiment on A498 renal it was 0.243 µM; in the experiment on UO-31 renal it was 2.52 µM; in the experiment on UACC-257 melanoma it was 1.84 µM. The GI50 in the experiment with COLO 205 colon is 1.61 µM. Moreover, the TGI was determined as 11.8 µM in the experiment on TK-10 renal; 3.74 µM with CCRF-CEM leukemia; 8.27 µM in the experiment on RXF 393 renal; 2 µM with A498 renal; 10.2 µM in the experiment on UO-31 renal; 6.1 µM in the experiment with UACC-257 melanoma. The compound further came in with a TGI with COLO 205 colon of 5.7 µM.
For the compound `CC1=C(Oc2ccccc2)C(CCC(=O)O)c2c(O)cc(Cl)c(O)c21` (stereo not given), the TGI with SNB-78 CNS, in the experiment with TK-10 renal, in the experiment on CCRF-CEM leukemia, in the experiment with RXF 393 renal, in the experiment on A498 renal and in the experiment with DLD-1 colon was more than 100 µM each time. For the same compound, the TGI in the experiment on UO-31 renal, in the experiment on UACC-257 melanoma and with COLO 205 colon was more than 100 µM in each case.
Regarding `Cc1ccc(C(=O)c2nnc(C(=O)c3ccc(C)cc3)nn2)cc1`, the TGI was more than 100 µM in the experiment on SNB-78 CNS; more than 100 µM in the experiment with TK-10 renal; 50.8 µM with CCRF-CEM leukemia; more than 100 µM in the experiment with LXFL 529 NSCLC; more than 100 µM with DLD-1 colon; more than 100 µM with UO-31 renal. Moreover, the TGI in the experiment with UACC-257 melanoma and in the experiment with COLO 205 colon was more than 100 µM throughout.
